Measurements taken from US8647615B1, “Methods for attracting honey bee parasitic mites” (The United States of America, as represented by the …, priority 2010, dated 2014).
Entries after “also recorded” stand apart in the source; their conditions may differ.

Columns and labels:
Varroa mite forelegs = assay: coupled gas chromatography and electroantennographic detection (GC-EAD) with mite forelegs; parameters: species or system Varroa mites; conditions: standard with compounds at equal concentrations
Text: To determine if mites can detect the acid compounds we used coupled gas chromatography and electroantennographic detection (GC-EAD) and electroantennography (EAG). […] A detecting electrode was set up with electrode gel on each contact and then a mite was dissected so that both of its forelegs could be set across the electrodes. The electrode gel provides both a better contact and keeps the forelegs from drying out. For GC-EAD we used a standard containing our two attractive acids along with other short chain acids (i.e., acetic acid, propanoic acid, and hexanoic acid) and common bee odors (iso-pentyl acetate, delta-3-carene, E-(β)-ocimine) at equal concentrations. […] We used EAG to determine the responses of forelegs to the individual detected compounds. […] The dashed line in FIG. 6 represents the level of the control response.

mites [1] = assay: no choice test with Ethovision analysis; assay type: in vivo, Varroa mites
Text: (§1) This experiment used the tracking software Ethovision XT (Noldus Information Technology, Leesburg Va.) to monitor the position of mites in an arena. The arena was a four quadrant petri dish 7.5 cm in diameter, the sides of the dish were ground down so that the separations were all the same height as the edges. A plexiglass ring, 7.5 cm outside diameter 2.5 cm high, with 11 micron Nitex fabric attached to the bottom contained the mite and separated the mite from the odor sources but allowed the odors to diffuse through the fabric. The petri dish quadrants were filled either with 5% butyric acid in water, or water only as a control. Opposite quadrants were filled with the same material so that the bottom of each quadrant was completely covered with liquid. This ensured equal surface areas for diffusion of the solute and solvent. Each experiment was conducted with 8 mites. […] A second set of no choice assays was also performed, these assays used an un-separated petri dish to hold the 5% acid solution and the movements of the mites over the solution were monitored.

mites [2] = assay: two choice diffusion bioassay, Ethovision tracking; assay type: in vivo, Varroa mites; conditions: 5% butyric acid in water vs water, 8 mites, p<0.001
Text: as §1

[3] = system: Free-roaming (off the adult bee) mites; assay: four choice arena bioassay; assay type: in vivo, Varroa mites; conditions: for mite attraction: movement toward odor source (contact or position at end of bioassay): 5% by volume in distilled water vs three water controls, 5 minutes, expected value 25%; for arrestant (stopping) behavior: four choice arena, 5% by volume in distilled water
Text: (§2) We developed a four choice bioassay to evaluate the responses of mites to highly concentrated volatiles released at very close distances (7 mm). Our choice arena consisted of four odor sources presented directly beneath a permeable mesh floor. Each odor source was introduced by capillary release from a capillary tube, the volatiles diffused up through the permeable mesh floor. Free-roaming (off the adult bee) mites were introduced onto a vertical pin placed in the center of the arena. […] The expected value for response is 25% as indicated by the dashed line. […] Free-roaming mites were also exposed to these chemicals under the microscope to visually evaluate mite detection, attraction, and arrestant responses to the acid volatiles.

[4] = system: phoretic mites on adult bees; assay: bottom screen assay: mite-infested adult worker bees in screen bottomed jar over water trap; assay type: in vivo, Varroa mites; conditions: 20 minutes; for mites that fell off bees versus control jars: 200 mite-infested bees per jar, 100 μL, three replicates, control methylene chloride; for mite activity level versus control treatments: exposure to acid volatiles
Protocol: We then performed a bottom screen assay to assess the response of phoretic mites on adult bees to the acid volatiles. We placed 200 mite-infested adult worker bees in a screen bottomed jar inverted over a water trap. A total of nine jars were used, three replicates of each treatment. The mites and bees were exposed to either butyric acid, isobutyric acid, or a control solvent (methylene chloride) (100 μL) for 20 minutes. Mites that moved off the bees fell into the water trap below. At the end of the experiment, the bees were washed with alcohol to estimate the number of mites that remained on the bees.

Free-roaming mites = assay: visual evaluation of free-roaming mites under the microscope; assay type: in vivo, Varroa mites; conditions: for excitation and search behaviors (questing and casting): acid volatiles from capillary tubes; for movement relative to acid droplets: free-roaming mites
Text: as §2, with “Once we determined that the mites could perceive and respond to the acid volatiles, we examined whether these acids acted as attractants or repellents. We” for “We”

SMILES: C=C/C(C)=C/CC=C(C)C [E-(β)-ocimine]
- detection by mite forelegs (GC-EAD) (Varroa mite forelegs): did not appear to be detected

SMILES: CC(=O)O [acetic acid]
- detection by mite forelegs (GC-EAD) (Varroa mite forelegs): could clearly detect

SMILES: CCCC(=O)O [butyric acid]
- movement (speed, stopping, time moving) versus water control (mites [1]; 5% acid solution, un-separated petri dish): significantly less time moving; also recorded: moving slower and stopping more often
- time spent in zone/arena over the acid versus water (mites [1]; 5% acid solution, un-separated petri dish, p<0.001): significantly more time; also recorded: spent more time in the arena
- arrestant behaviors on sustained exposure (mites [1]; EthoVision diffusion bioassays, sustained exposure to high concentrations of volatiles): caused arrestant behaviors
- time spent in zone over odor source versus control zones (mites [2]): spent significantly more time
- time spent in zone over odor source versus control zones (mites [2]; listed as Butyric Acid): more time is spent
- mite attraction: movement toward odor source (contact or position at end of bioassay) [3]: significantly more likely to move in the direction of
- arrestant (stopping) behavior [3]: did not display any arrestant (stopping) behavior
- mites that fell off bees versus control jars [4]: significantly more mites fell off bees
- mite activity level versus control treatments [4]: much higher activity levels
- detection by mite forelegs (GC-EAD) (Varroa mite forelegs): excited by
- excitation and search behaviors (questing and casting) (Free-roaming mites): showed excitation and search behaviors
- movement relative to acid droplets (Free-roaming mites): moved toward and occasionally into acid droplets

SMILES: CC1=CCC2C(C1)C2(C)C (stereo not shown) [delta-3-carene]
- detection by mite forelegs (GC-EAD) (Varroa mite forelegs): did not appear to be detected

SMILES: CCCCCC(=O)O [hexanoic acid]
- detection by mite forelegs (GC-EAD) (Varroa mite forelegs): did not appear to be detected

SMILES: CC(=O)OCCC(C)C [iso-pentyl acetate]
- detection by mite forelegs (GC-EAD) (Varroa mite forelegs): did not appear to be detected

SMILES: CC(C)C(=O)O [isobutyric acid]
- mite attraction: movement toward odor source (contact or position at end of bioassay) [3]: significantly more likely to move in the direction of
- arrestant (stopping) behavior [3]: did not display any arrestant (stopping) behavior
- mites that fell off bees versus control jars [4]: significantly more mites fell off bees
- mite activity level versus control treatments [4]: much higher activity levels
- detection by mite forelegs (GC-EAD) (Varroa mite forelegs): excited by
- excitation and search behaviors (questing and casting) (Free-roaming mites): showed excitation and search behaviors
- movement relative to acid droplets (Free-roaming mites): moved toward and occasionally into acid droplets

SMILES: CCC(=O)O [propanoic acid]
- detection by mite forelegs (GC-EAD) (Varroa mite forelegs): did not appear to be detected
